Data on 1 compound can be found in paper PMC9594046, “Identification of Histone Peptide Binding Specificity and Small-Molecule Ligands for the TRIM33α and TRIM33β Bromodomains” (ACS Chemical Biology, 2022).

One assay deals with TRIM24 BRD. Conditions: read-out: TRIM24 Kd (ITC); cited from earlier work.
The next assay addresses BRPF1 BRD. Conditions: read-out: BRPF Kd (ITC); cited from earlier work.
The target of the next assay is T1, TRIM24 PHD-BRD (Homo sapiens, UniProt O15164).
T1 sequence (O15164 with tags, fused parts or gaps): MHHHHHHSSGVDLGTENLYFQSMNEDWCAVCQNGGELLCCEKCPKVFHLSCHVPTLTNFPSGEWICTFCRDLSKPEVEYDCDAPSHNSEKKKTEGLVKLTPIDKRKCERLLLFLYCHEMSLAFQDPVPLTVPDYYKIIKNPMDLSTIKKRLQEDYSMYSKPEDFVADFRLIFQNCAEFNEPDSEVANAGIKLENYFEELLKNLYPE
Kind of assay: AlphaScreen dose-response displacement of biotinylated H3 peptide. Conditions: IC50 binding to the TRIM24 BRD-PHD (AlphaScreen), displacement of H3_1–27K18Ac.

The target of a further assay is T2, TRIM33α PHD-BRD (Homo sapiens, UniProt Q9UPN9).
T2 sequence (Q9UPN9 888-1127): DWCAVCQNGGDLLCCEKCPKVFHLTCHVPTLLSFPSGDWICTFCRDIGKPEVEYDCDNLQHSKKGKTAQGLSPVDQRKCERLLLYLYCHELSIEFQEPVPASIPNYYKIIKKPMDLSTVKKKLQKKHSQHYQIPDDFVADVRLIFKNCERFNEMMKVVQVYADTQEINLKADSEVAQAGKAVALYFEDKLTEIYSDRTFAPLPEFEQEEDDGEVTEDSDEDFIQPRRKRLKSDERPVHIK
Described as above.

SMILES strings stand for the structures.

Protocol for TRIM24 PHD-BRD: (§1) To establish an AlphaScreen assay,[13],[50],[51] the PHD-BRD cassettes of TRIM24 and both TRIM33 isoforms were expressed with an N-terminal His6 tag attached (CD spectra for these constructs are shown in Figure S9).
(§2) Assay buffer was freshly prepared each day by supplementing HEPES buffer with BSA, the pH was
(§3) adjusted to 7.6 and filter sterilized through a 0.22 µm filter, and stored at 4 °C until use.
(§4) steps, the plate was sealed, shaken for 10 sec at 600 rpm on a plate oscillator, and incubated at room
(§5) in triplicate, as point concentrations or serial buffer dilutions from 50 mM DMSO solutions.
(§6) peptide mix (7 µL) was dispensed into each well using a Thermo-Fisher electronic multi-channel
(§7) pipette, and incubated for 30 min. AlphaScreen bead mix (8 µL; 25 µg/mL of acceptor and donor beads)
(§8) was added to each well, taking adequate precautions to avoid light exposure, before being incubated for
(§9) 1 h. The plate was read using a Synergy™ 2 MultiMode Microplate Reader using the built-in
(§10) Single shot screening was performed in triplicate.
(§11) <0.5% DMSO. Inhibition is reported as a reduction in signal arising from peptide-bromodomain
(§12) interaction, normalised to a DMSO control. Signal response curves were obtained for peptides or
(§13) compounds in triplicate, with serial 1:2 dilutions. Samples containing buffer or DMSO in place of
(§14) compound were included in all assays for normalisation. Data were processed by fitting a four-
(§15) parameter equation shown below to calculate IC50 values using GraFit version 7.0.32 or GraphPad Prism
(§16) 𝑌 = 𝑀𝑖𝑛𝑖𝑚𝑢𝑚 + 𝑀𝑎𝑥𝑖𝑚𝑢𝑚 − 𝑚𝑖𝑛𝑖𝑚𝑢𝑚 ,𝑤ℎ𝑒𝑟𝑒 𝑋 = log (𝑐𝑜𝑚𝑝𝑜𝑢𝑛𝑑 𝑐𝑜𝑛𝑐𝑒𝑛𝑡𝑟𝑎𝑡𝑖𝑜𝑛) 1 + 10("#$%&!"’()(*+,, .,/01)
(§17) Assay buffer was prepared as above. For incubation steps, the plate was sealed, shaken for 10 sec at
(§18) 600 rpm on a plate oscillator, and incubated at room temperature in the dark. Peptides (5 µL) were
(§19) dilutions from 100 µM HEPES buffer stock solutions. Protein (7 µL) was dispensed into each well
(§20) using a Thermo-Fisher electronic multi-channel pipette, and incubated for 30 min. AlphaScreen bead
(§21) mix (8 µL; 25 µg/mL of acceptor and donor beads) was added to each well, avoiding light exposure,
(§22) before being incubated for 1 h. The plate was read using a Synergy™ 2 MultiMode Microplate Reader
(§23) Ni2+ chelate acceptor and streptavidin donor beads were prepared as a mixture in a 1:300 or 1:400
(§24) dilution as required (0.005–0.007 mg/mL FAC); biotinylated peptide employed, and final assay
(§25) concentrations were as detailed in table below. Assay well volume was 20 µL.
(§26) Peptides were supplied as 1–9 mg quantities with >95% purity (as determined by HPLC; Cambridge
(§27) Research Biochemicals or Genscript). Residual water and counter ions were predicted to comprise 20%
(§28) of the net mass, and peptides were dissolved to 10, 1.0, and 0.1 mM stocks in buffer (50 mM HEPES,
(§29) 500 mM NaCl; pH 7.6) before being stored at -80 °C in 5 µL aliquots. A terminal tyrosine residue was
(§30) incorporated into the peptide structure to allow for accurate quantification of concentration.
Protocol for TRIM33α PHD-BRD: as §1, §2, §3, §4, §5, §6, §7, §8, §9, §10, §11, §12, §13, §14, §15, §16, §17, §18, §19, §20, §21, §22, §23, §24, §25, §26, §27, §28, §29, §30

What is called Kd is the constant that tells how readily two partners part at equilibrium. As usually defined, the IC50 is the concentration at which inhibition is half-maximal. A high value points to a need for much substance. Regarding `COc1ccc(Oc2cc3c(cc2NS(=O)(=O)c2ccc(OC)c(OC)c2)n(C)c(=O)n3C)cc1` [Compound 2], the Kd was 222 nM at TRIM24 BRD and 137 nM at BRPF1 BRD. The compound also returned an IC50 at TRIM24 PHD-BRD of 219 nM. Besides, on TRIM33α PHD-BRD, the “displacement of H3_1–27K18Ac from TRIM33α (AlphaScreen)” value is on record as “not for either isoform of TRIM33”.
